Each structure is given as a SMILES string.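 Cells were grown in 96-well plates and exposed to each compound for 48 hours at five concentrations; endpoints were interpolated linearly between bracketing concentrations, or set to the highest concentration if not reached. Abbreviation: GI50, concentration required for 50% inhibition of growth.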 Active and inactive are the calls of the source. No stated cut-off is given here; in the data, active = GI50 up to about 1.1 µM and inactive = higher. Bounds are passed on as bounds.

Test systems include MDA-MB-231; BT-549; T47D; MDA-MB-435; LXFL 529; TK-10; Hs-578T; 786-0.
Common to all, as to assay: growth of human tumour cells (NCI), 48 h

For `COC1/C=C/C=C(/C)Cc2cc(O)c(Cl)c(c2)N(C)C(=O)CC(OC(=O)C(C)C)C2(C)OC2C(C)C2CC1(O)NC(=O)O2` (stereo not given), the GI50 with MDA-MB-231 was < 0.01 µM (active); in the test on BT-549, < 0.01 µM (active); in the test with T47D, > 100 µM (inactive); in the test on MDA-MB-435 it was < 0.01 µM (active).
Turning to `CC(C)N/C(N)=N/C#N`, in the test with LXFL 529, the GI50 was > 100 µM (inactive).
On to `COC(=O)N1CC2C3C4CC(C(c5ccccc5)=C4c4ccccc4)C3C21` (stereo not given), for which the GI50 in the test on MDA-MB-231 was 7.35 µM (inactive); in the test with TK-10 it was 15.8 µM (inactive); with BT-549, 16 µM (inactive); in the test with T47D it was 9.82 µM (inactive); in the test on MDA-MB-435 it was 15.2 µM (inactive).
Consider `Cc1ccccc1NC(=O)C(=O)C(C1OC(=O)c2ccccc21)[N+](=O)[O-]` (stereo not given), for which the GI50 in the test on LXFL 529 and in the test on TK-10 was > 100 µM (inactive) each time.
On to `BrC1=CN2C[n+]3cc(Br)c4ccccc4c3N=C2c2ccccc21`, for which the GI50 is 15 µM (inactive) in the test on MDA-MB-231; 22.1 µM (inactive) with Hs-578T; 26.8 µM (inactive) with TK-10; 16.9 µM (inactive) in the test on BT-549; 4.14 µM (inactive) in the test on T47D; 6.18 µM (inactive) in the test on MDA-MB-435.
In the case of `CO/N=C(\C)c1ccc(Nc2nc3ccccc3c3occc23)cc1`, the GI50 was 12.7 µM (inactive) with MDA-MB-231; 12.5 µM (inactive) with Hs-578T; 12.4 µM (inactive) in the test on TK-10; 16.8 µM (inactive) in the test on BT-549; 12.6 µM (inactive) in the test with T47D; 16.4 µM (inactive) with MDA-MB-435. In addition, the GI50 in the test on 786-0 is 14.2 µM (inactive).
For the compound `COc1ccccc1-c1cc(O)c2c(C)ccnc2n1`, the GI50 with MDA-MB-231 was 26.7 µM (inactive); in the test with Hs-578T it was 11.5 µM (inactive); in the test on TK-10 it was > 100 µM (inactive); in the test on BT-549 it was 7.1 µM (inactive); in the test on T47D, 16.2 µM (inactive).
